Literature values in patent US7074826B2, “R-NSAID esters and their use” (Encore Pharmaceuticals, Inc., priority 2002, dated 2006).

Legend:
[1] = tested on: colon cancer patients
[2] = tested on: Alzheimer's dementia; settings: limited clinical trial
[3] = tested on: cystic fibrosis patients

O=c1[nH]cc(F)c(=O)[nH]1 [5-fluorouracil]
survival among colon cancer patients ([1]; administered alone): No improvement in survival

COc1ccc2c(c1)c(CC(=O)O)c(C)n2C(=O)c1ccc(Cl)cc1 [indomethacin]
progression of Alzheimer's dementia [2]: retardation in the progression of Alzheimer's dementia

c1ccc([C@H]2CN3CCSC3=N2)cc1 [levamisole]
survival rate among colon cancer patients ([1]; added to 5-fluorouracil): improved survival rate

CC(C)Cc1ccc(C(C)C(=O)O)cc1 (racemic) [racemic ibuprofen, ibuprofen]
adverse effects of high doses ([3]; high doses employed in the Konstan study): conjunctivitis and epistaxis
progression of the lung disease ([3]; high doses, cystic fibrosis patients, four-year period): slows progression of the lung disease
